Assay results published in US20220362127A1, “BIOENERGETIC COMBINATIONS AND METHODS OF USING SAME” (Conopco, Inc., d/b/a UNILEVER, priority 2019, published 2022).
Marks after values point to notes of the source that are not given here.

Columns and labels:
human keratinocytes [1] = assay: Mitochondrial fragmentation in keratinocytes, UV Study (Example 2), TPEF imaging of NADH, PSD exponent β; format: cell-based; settings: B3 10 mM, AceMet 500 uM, MeNAM 10 mM alone or 500 uM with B3; for Effect on UV-induced mitochondrial fragmentation in words: UV-exposed; for Mitochondrial Fragmentation (−) UV (3 days) / Mitochondrial Fragmentation (+) UV (4 days): keratinocytes; for Mitochondrial Fragmentation (−) UV (3 days): 3 days before UV exposure, control 1.30; for Mitochondrial Fragmentation (+) UV (4 days): 4 days after UV exposure (4 J/cm^2 UVA+UVB, 14 min daily), UV control 1.58
Procedure: Test compounds (B3, AceMet and MeNAM) were purchased from Sigma (St. Louis, Mo.). Cell culture growth media (Epilife media with calcium (Cat #MEPI500CA) and Epilife media supplement HKGS 100X (Cat #S-001-5)) was purchased from Thermofisher (Waltham, Mass.). Cryopreserved human keratinocytes cells (˜1×10^6 cells) were plated on 12-well glass bottom plates at a confluence of ˜15%. The cells were suspended in primary keratinocyte growth media (Epilife media with calcium) and incubated @ 37° C. for 1d (Day 0). At Day 1, cells began treatment with supplemented primary keratinocyte growth media (Epilife media with calcium supplemented with HKGS 100X; 25 ml total) without test compound (Control sample) or containing test compounds B3 (10 mM), MeNAM (10 mM), AceMet (500 uM), B3 (10 mM)+AceMet (500 uM) or B3 (10 mM)+MeNAM (500 uM). Cell treatment (25 ml media with or without test compounds as above) continued daily for 4 additional days (Non-UV Study—Example 1) or 2 additional days (UV Study—Example 2). For the UV Study, cells were subjected to UV treatment on Day 4 by replacing media with PBS, exposing cells to UV light (4 J/cm^2 of UVA+UVB) for 14 min and feeding cells with media with or without corresponding test compounds as defined above. UV treatments continued daily for 3 additional days (Days 5, 6 and 7). Image acquisition and analysis on all cell wells to assess mitochondrial fragmentation was conducted on Day 1, 3, 5 and 8.
(§1) For two-photon excited fluorescence (TPEF) imaging, cell cultures were placed in microscope-compatible micro-incubator system, which maintained 37° C. within a humidified environment throughout the imaging session.
HEPES buffering agent (Sigma) was added to cell cultures in primary keratinocyte growth medium before imaging, which maintained the pH of cell cultures throughout the imaging session. Images were obtained using a Leica TCS SP8 confocal microscope equipped with a tunable (680-1300 nm) titanium-sapphire laser (InSight Deep See; Spectra Physics; Mountain View, Calif.). Images (1024×1024 pixels; 386×386 μm) were acquired using water-immersion 25×objective (NA 0.95; 2.4 mm working distance), with simultaneous collection by two non-descanned photomultiplier tube (PMT) detectors using a filter cube containing filters from Chroma (Bellows Falls, Vt.), including a 700 nm short pass filter (ET700SP-2P) and a 495 nm dichroic mirror (495DCXR). To isolate NADH fluorescence, a 460(±20) nm emission filter (Chroma, ET460/40M-2P), corresponding to the NADH emission peak, was placed before one of the non-descanned detectors. NADH fluorescence images were acquired from this 460 nm channel using 755 nm excitation. FAD fluorescence was isolated using a 525(±25) nm emission filter (Chroma, ET525/50M-2P) for the other non-descanned detector and 860 nm excitation. The two-photon action cross section of NADH decreases by several orders of magnitude between 755 nm and 860 nm excitation, enabling an efficient isolation of FAD at longer wavelengths. The fluorescence lifetime images (512×512 pixels; 386×386 μm) corresponding to NADH were acquired under the same excitation and emission settings, using SymPho software. PMT gain was adjusted for each image to maximize contrast while preventing a saturated pixel intensity value. The PMT gain and laser power were recorded for each image and used to normalize fluorescence intensity.
To assess mitochondrial fragmentation, a previously established Fourier transform technique was used to obtain power spectral density (PSD) curves from each image. […]

human keratinocytes [2] = assay: Mitochondrial fragmentation in keratinocytes (Non-UV Study, Example 1), TPEF imaging of NADH, PSD exponent β; format: cell-based; settings: no UV, B3 10 mM
Procedure: Test compounds (B3, AceMet and MeNAM) were purchased from Sigma (St. Louis, Mo.). Cell culture growth media (Epilife media with calcium (Cat #MEPI500CA) and Epilife media supplement HKGS 100X (Cat #S-001-5)) was purchased from Thermofisher (Waltham, Mass.). Cryopreserved human keratinocytes cells (˜1×10^6 cells) were plated on 12-well glass bottom plates at a confluence of ˜15%. The cells were suspended in primary keratinocyte growth media (Epilife media with calcium) and incubated @ 37° C. for 1d (Day 0). […]
as §1
HEPES buffering agent (Sigma) was added to cell cultures in primary keratinocyte growth medium before imaging, which maintained the pH of cell cultures throughout the imaging session. […] To isolate NADH fluorescence, a 460(±20) nm emission filter (Chroma, ET460/40M-2P), corresponding to the NADH emission peak, was placed before one of the non-descanned detectors. NADH fluorescence images were acquired from this 460 nm channel using 755 nm excitation. FAD fluorescence was isolated using a 525(±25) nm emission filter (Chroma, ET525/50M-2P) for the other non-descanned detector and 860 nm excitation. […]

SMILES	Effect on mitochondrial fragmentation in words, Non UV-exposed keratinocytes (human keratinocytes [1])	Effect on UV-induced mitochondrial fragmentation in words (human keratinocytes [1])	Mitochondrial Fragmentation (−) UV (3 days) (human keratinocytes [1])	Mitochondrial Fragmentation (+) UV (4 days) (human keratinocytes [1])	Mitochondrial Fragmentation (human keratinocytes [2]; keratinocytes after 5 days exposure, AceMet 500 uM, MeNAM 500 uM, higher value = less protection, control 1.88)	Effect on mitochondrial fragmentation in words (human keratinocytes [2]; keratinocytes, 5 days, AceMet or MeNAM 500 uM)
CSCC[C@H](NC(C)=O)C(=O)O [AceMet, N-acetylmethionine]	does not significantly reduce mitochondrial fragmentation	increases mitochondrial fragmentation beyond UV-exposed levels	1.47^c,e	1.76^c,e,h		
NC(=O)c1cccnc1 [B3, Nicotinamide]	does not significantly reduce mitochondrial fragmentation	effective at reducing this UV-induced effect down to control levels	1.18	1.34 ^d	1.67 ^a	decreases mitochondrial fragmentation
C[n+]1cccc(C(N)=O)c1 [MeNAM, 1-methylnicotinamide chloride]	significantly reduces mitochondrial fragmentation	effective at reducing this UV-induced effect down to control levels	1.15^a	1.29^a,d		
